# Results published in US11618746B2, “Inhibitors of APOL1 and methods of using same” (Vertex Pharmaceuticals Incorporated, priority 2018, dated 2023).
# Biological target: T1, G1 APOL1 (Homo sapiens, UniProt O14791, I384M/S342G)
# T1 construct: expressed in transfected cells
# T1 sequence (O14791 28-398 S342G/I384M): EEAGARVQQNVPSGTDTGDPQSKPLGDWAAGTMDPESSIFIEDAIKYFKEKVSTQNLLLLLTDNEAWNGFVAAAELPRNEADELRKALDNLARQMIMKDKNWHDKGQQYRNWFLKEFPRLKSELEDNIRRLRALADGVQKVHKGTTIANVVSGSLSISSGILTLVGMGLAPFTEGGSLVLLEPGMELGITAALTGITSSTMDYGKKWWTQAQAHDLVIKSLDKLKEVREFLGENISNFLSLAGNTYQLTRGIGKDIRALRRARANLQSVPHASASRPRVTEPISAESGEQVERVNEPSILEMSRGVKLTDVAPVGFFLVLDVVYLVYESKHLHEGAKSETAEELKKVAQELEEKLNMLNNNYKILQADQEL
# Experiment: Acute APOL1 Thallium Assay with inducible stable clones of HEK 293 cells
# Assay type: cell-based
# Conditions: HEK T-Rex tetracycline-inducible cells expressing G1 APOL1 (clone G1 DC3.25); inhibition of thallium flux rate
# Source text: Acute APOL1 Thallium Assay with Inducible Stable Clones of HEK 293 Cells
# Apolipoprotein L1 (APOL1) proteins form potassium-permeable cation pores in the plasma membrane. APOL1 risk variants (G1 and G2) induce greater potassium flux than G0 in HEK293 cells. This assay exploits the permeability of thallium (T1+) through ligand-gated potassium channels. The dye produces a bright fluorescent signal upon binding to T1+ conducted through potassium channels. The intensity of the T1+ signal is proportional to the number of potassium channels in the open state. Therefore, it provides a functional indication of the potassium channel activities. During the initial dye-loading step, the T1+ indicator dye as an acetoxymethyl (AM) ester enters the cells through passive diffusion. Cytoplasm esterases cleave the AM ester and relieve its active thallium-sensitive form. The cells are then stimulated with T1+. The increase of fluorescence in the assay represents the influx of T1+ into the cell specifically through the potassium channel (i.e. through APOL1 pores), providing a functional measurement of potassium channel/pore activity. The Thallium assay is conducted with cells expressing G1 APOL1.
# APOL1 Cell Line (HEK T-Rex Stable Inducible Cell Line) • HEK T-Rex System • Tetracycline (Tet) inducible mammalian expression system. • Stably express the Tet repressor to regulate transcription. • Expression under the full-length CMV promoter. • APOL1 stable inducible cell line Clone used: G1 DC3.25
# Tissue Culture Media • Cell Culture Medium • DMEM +10% FBS +P/S +5 μg/mL blasticidin+1 μg/mL puromycin. • 500 mL DMEM +55 mL FBS +5 mL P/S +280 μL blasticidin S HCl (10 mg/mL)+56 μL puromycin (10 mg/mL). • Cell Assay Medium • DMEM with 2% FBS+pen strep.
# Instruments and Equipment • Nuaire cell culture hood, Cat. No. 540-600 • 37° C./5% CO2 incubator link to robotic arm, Liconic: STX110 • Molecular Devices FLIPR^Tetra High throughput cellular screening system, Cat. No. FT0324, Molecular Devices • ThermoFisher MultiDrop 384, Cat. No. 5840300 • Biotek Microfill, Cat. No. ASF1000A-4145 • BioRad TC10 cell counter, Cat. No. 145-0010 Assay Procedures
# Cells Scaled Up from Frozen Vials • APOL1 G1 3.25 (HEK293 T-Rex) frozen vials: 5 million cells per vial • Step 1, Day 1: Defrost frozen vial into T-225. • Step 2, Day 5: (when 85% confluent): Split one T-225 at 3×10^6 cells per flask. • Step 3, Day 8: Splits cells to set up for the assay plates as described below.
# T-Rex APOL1 HEK cells are split twice per week to keep the confluence state below 85% of the culture flask surface area. Cells can be kept until passage 25. • Cell Culture Medium • DMEM high glucose +10% FBS, +P/S, +5 μg/mL blasticidin, +1 μg/mL puromycin. • 500 mL DMEM, +55 mL FBS, +5 mL P/S, +280 μL blasicidin 10 mg/mL, +56 μL Puromycin 10 mg/mL. • Assay Media • Opti-MEM reduced serum medium from Invitrogen.
# Preparation of Cell Assay Plates • Culture medium is removed from the x cm^2 T-flask by aspiration. • The cell monolayer is rinsed with PBS 1× at room temperature. PBS is removed by aspiration. • Cells are trypsinized using Trypsin. • The flasks are incubated at room temperature for 2-3 minutes. • Complete DMEM medium is then added. Cell suspension is then transferred to a 50 mL Falcon polypropylene tube. • Cells are then counted using a Biorad TC10 cell counter and the required amount of cells are centrifuged at 1200 RPM for 5 minutes. Required amount is 1.3×10^6 cells/mL APOL1 T-Rex HEK cells. • The pellet is suspended in the assay medium. • Using the MultiDrop, add 20 μL to each well (corresponds to 26000 cells total per well) of a 384-well black, transparent, flat bottom Poly-D coated plate. • Tetracycline as prepared in the following section is added to the cells before plating to induce APOL1 expression. • Plates are left at room temperature for 20 to 30 minutes before incubation at 37° C. and 5% CO2. […]
row,SMILES,IC50
1,O=C(CCc1c(-c2ccc(F)cc2)[nH]c2c(F)cc(F)cc12)N[C@H]1C(=O)NC[C@H]1O [Compound 15],250 to 1000 nM
2,"O=C(CCc1c(-c2ccc(F)cc2)[nH]c2c(C(F)F)cc(F)cc12)N[C@@H]1C(=O)NC[C@H]1O [Compound 100, 3-[7-(difluoromethyl)-5-fluoro-2-(4-fluorophenyl)-1H-indol-3-yl]-N-[(3S,4R)-4-hydroxy-2-oxo-pyrrolidin-3-yl]propanamide]",< 250 nM
3,O=C(CCc1c(-c2ccc(OC(F)F)cc2)[nH]c2ccccc12)N[C@@H]1C(=O)NC[C@H]1O [Compound 117],< 250 nM
4,O=C(CCc1c(-c2ccccc2)[nH]c2c(Cl)cccc12)N[C@@H]1C(=O)NC[C@H]1O [Compound 74],< 250 nM
5,"O=C(CCc1c(-c2ccc(F)cc2)[nH]c2ccc(Cl)cc12)N[C@@H]1C(=O)NC[C@H]1O [Compound 45, 3-[5-chloro-2-(4-fluorophenyl)-1H-indol-3-yl]-N-[(3S,4R)-4-hydroxy-2-oxo-pyrrolidin-3-yl]propanamide]",< 250 nM
6,O=C(CCc1c(-c2ccc(F)cc2)[nH]c2c(F)cc(OC(F)F)cc12)N[C@@H]1C(=O)NC[C@H]1O [Compound 106],< 250 nM
7,"O=C(CCc1c(-c2ccc(Cl)cc2)[nH]c2c(Cl)cccc12)N[C@@H]1C(=O)NC[C@H]1O [Compound 113, 3-[7-chloro-2-(4-chlorophenyl)-1H-indol-3-yl]-N-[(3S,4R)-4-hydroxy-2-oxo-pyrrolidin-3-yl]propanamide]",< 250 nM
8,Cc1cccc2c(CCC(=O)N[C@@H]3C(=O)NC[C@H]3O)c(-c3ccccc3)[nH]c12 [Compound 69],< 250 nM
9,"CC(=O)O[C@@H]1CNC(=O)[C@H]1NC(=O)CCc1c(-c2ccc(F)cc2)[nH]c2c(F)cc(F)cc12 [Compound 4, [(3R,4S)-4-[3-[5,7-difluoro-2-(4-fluorophenyl)-1H-indol-3-yl]propanoylamino]-5-oxo-pyrrolidin-3-yl]acetate]",> 1000 nM
10,"O=C(CCc1c(-c2ccc(F)cc2)[nH]c2c(C(F)(F)F)cccc12)N[C@@H]1C(=O)NC[C@H]1O [Compound 111, 3-[2-(4-fluorophenyl)-7-(trifluoromethyl)-1H-indol-3-yl]-N-[(3S,4R)-4-hydroxy-2-oxo-pyrrolidin-3-yl]propanamide]",< 250 nM
11,O=C(CCc1c(-c2ccc(F)cc2)[nH]c2c(F)c(F)ccc12)N[C@H]1CCNC1=O [Compound 57],250 to 1000 nM
12,O=C(CCc1c(-c2ccc(F)cc2)[nH]c2c(F)cc(F)cc12)N[C@H]1C[C@H](CF)NC1=O [Compound 10],> 1000 nM
13,O=C(CCc1c(-c2ccccc2)[nH]c2c(F)cc(F)cc12)N[C@H]1CCNC1=O [Compound 25],< 250 nM
14,"O=C(N[C@H]1CCNC1=O)[C@H](O)Cc1c(-c2ccc(F)cc2)[nH]c2c(F)cc(F)cc12 [Compound 93, (2R)-3-[5,7-difluoro-2-(4-fluorophenyl)-1H-indol-3-yl]-2-hydroxy-N-[(3S)-2-oxopyrrolidin-3-yl]propanamide]",> 1000 nM
15,O=C(CCc1c(-c2ccccc2)[nH]c2c(C3CC3)cccc12)N[C@@H]1C(=O)NC[C@H]1O [Compound 63],< 250 nM
16,"COc1ccc2[nH]c(-c3ccc(F)cc3)c(CCC(=O)N[C@H]3CCNC3=O)c2c1 [Compound 56, 3-[2-(4-fluorophenyl)-5-methoxy-1H-indol-3-yl]-N-[(3S)-2-oxopyrrolidin-3-yl]propanamide]",> 1000 nM
17,O=C(CCc1c(-c2ccc(F)cc2)[nH]c2cc(F)c(F)cc12)N[C@@H]1C(=O)NC[C@H]1O [Compound 81],< 250 nM
18,O=C(CCc1c(-c2ccc(F)cc2)[nH]c2c(F)cc(F)cc12)N[C@H]1C(=O)NC[C@@H]1O [Compound 12],250 to 1000 nM
19,Cc1cccc2c(CCC(=O)N[C@@H]3C(=O)NC[C@H]3O)c(-c3ccc(F)cc3)[nH]c12 [Compound 71],< 250 nM
20,N#Cc1cccc(-c2[nH]c3ccc(F)cc3c2CCC(=O)N[C@H]2CCNC2=O)c1 [Compound 53],> 1000 nM
21,CC(C)c1cccc2c(CCC(=O)N[C@@H]3C(=O)NC[C@H]3O)c(-c3ccccc3)[nH]c12 [Compound 68],250 to 1000 nM
22,Cc1c(F)ccc2c(CCC(=O)N[C@@H]3C(=O)NC[C@H]3O)c(-c3ccc(F)cc3)[nH]c12 [Compound 83],< 250 nM
23,Cc1cc(F)cc2c(CCC(=O)N[C@H]3CCNC3=O)c(-c3ccc(F)cc3)[nH]c12 [Compound 38],< 250 nM
24,Cc1ccc(-c2[nH]c3c(F)cc(F)cc3c2CCC(=O)N[C@@H]2CCNC2=O)cc1 [Compound 24],< 250 nM
25,C[C@H]1CNC(=O)[C@H]1NC(=O)CCc1c(-c2ccc(F)cc2)[nH]c2c(F)cc(F)cc12 [Compound 11],> 1000 nM
